The test system of experiment [1] is cyclin D1. Nature of the experiment: Cyclin D1 percentage degradation in Calu-1 cells (immunoblotting). It counts as cell-based. To be noted: 200 nM, 16 hours. In short, it runs like this:
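Cyclin D1 degradation was assessed by western blot. Clarified lysates, obtained by RIPA lysis with inhibitors and centrifugation at 13,000 rpm, were normalized by BCA protein assay and separated by SDS-PAGE. Bands were detected with Western ECL Substrate on a Bio-Rad ChemiDoc MP Imaging system and quantified in Image Lab software to derive percentage degradation.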
For orientation: Immunoblotting shows a protein as a band on a membrane.

Experiment [2] has as its target T1, CDK4 (Homo sapiens, UniProt P11802).
T1 construct: endogenous in cells; host or cells: Calu-1
The experiment in a line: CDK4 percentage degradation in Calu-1 cells (immunoblotting). Format: cell-based. The conditions noted are these: read-out: CDK4 Degradation (200 nM). Summed up:
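CDK4 degradation was measured by immunoblotting. Cells were washed in cold PBS and lysed in RIPA buffer with inhibitors for 30 min at 4° C., then spun at 13,000 rpm to clear. After BCA protein determination, lysates were heated at 99° C. for 5 min in Laemmli buffer, resolved on SDS-PAGE, imaged on a ChemiDoc MP with ECL substrate, and band intensities quantified.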

Read-outs that look alike come from different tables or passages of the source.

T1 sequence (P11802 2-303 limits assumed): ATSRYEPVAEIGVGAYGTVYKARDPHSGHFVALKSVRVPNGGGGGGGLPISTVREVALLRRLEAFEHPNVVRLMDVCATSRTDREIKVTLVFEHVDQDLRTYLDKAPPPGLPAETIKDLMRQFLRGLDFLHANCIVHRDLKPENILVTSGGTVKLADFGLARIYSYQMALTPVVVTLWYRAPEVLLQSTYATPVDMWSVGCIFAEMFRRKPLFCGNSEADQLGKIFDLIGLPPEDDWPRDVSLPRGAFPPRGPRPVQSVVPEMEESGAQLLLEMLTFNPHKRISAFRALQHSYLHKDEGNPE
T1 sequence (P24385 whole entry partner): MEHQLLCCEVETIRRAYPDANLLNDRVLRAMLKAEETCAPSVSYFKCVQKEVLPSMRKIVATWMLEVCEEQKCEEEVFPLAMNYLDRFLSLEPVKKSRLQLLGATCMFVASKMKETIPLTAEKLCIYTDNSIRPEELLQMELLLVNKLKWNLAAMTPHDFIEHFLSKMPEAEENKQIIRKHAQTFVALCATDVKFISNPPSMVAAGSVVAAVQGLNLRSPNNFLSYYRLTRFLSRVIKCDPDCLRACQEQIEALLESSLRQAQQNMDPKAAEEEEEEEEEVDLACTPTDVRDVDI
T1 sequence (Q16531 2-1140 limits assumed, further chain): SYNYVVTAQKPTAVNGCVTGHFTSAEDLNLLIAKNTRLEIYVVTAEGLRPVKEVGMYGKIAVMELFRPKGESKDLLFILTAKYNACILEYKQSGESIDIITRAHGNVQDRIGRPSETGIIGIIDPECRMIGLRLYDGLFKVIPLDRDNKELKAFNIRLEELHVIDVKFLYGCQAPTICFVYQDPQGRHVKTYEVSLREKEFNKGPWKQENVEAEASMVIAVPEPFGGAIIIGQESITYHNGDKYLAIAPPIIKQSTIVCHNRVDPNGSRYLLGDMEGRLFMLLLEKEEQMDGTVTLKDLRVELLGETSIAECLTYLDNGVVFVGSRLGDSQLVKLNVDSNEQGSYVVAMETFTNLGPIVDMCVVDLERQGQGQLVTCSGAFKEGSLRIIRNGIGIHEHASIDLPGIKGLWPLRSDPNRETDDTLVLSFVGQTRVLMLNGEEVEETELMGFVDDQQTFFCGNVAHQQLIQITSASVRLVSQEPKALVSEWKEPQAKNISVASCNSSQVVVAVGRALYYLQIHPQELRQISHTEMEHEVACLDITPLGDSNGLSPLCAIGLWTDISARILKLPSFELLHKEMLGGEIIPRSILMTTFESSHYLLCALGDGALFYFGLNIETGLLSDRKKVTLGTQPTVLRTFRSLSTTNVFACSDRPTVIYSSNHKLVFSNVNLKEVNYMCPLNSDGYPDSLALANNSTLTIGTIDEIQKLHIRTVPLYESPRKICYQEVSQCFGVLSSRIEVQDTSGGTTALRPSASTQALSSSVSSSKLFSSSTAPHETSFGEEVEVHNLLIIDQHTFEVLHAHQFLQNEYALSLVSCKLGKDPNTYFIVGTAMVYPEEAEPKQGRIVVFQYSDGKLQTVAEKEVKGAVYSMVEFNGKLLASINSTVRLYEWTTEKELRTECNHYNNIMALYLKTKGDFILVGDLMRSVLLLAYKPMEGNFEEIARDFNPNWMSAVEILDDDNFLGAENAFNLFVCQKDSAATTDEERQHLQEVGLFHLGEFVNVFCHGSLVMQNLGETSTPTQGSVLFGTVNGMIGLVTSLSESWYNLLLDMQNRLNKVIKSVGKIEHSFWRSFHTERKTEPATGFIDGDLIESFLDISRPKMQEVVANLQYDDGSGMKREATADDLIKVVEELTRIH

`CC(=O)c1c(C)c2cnc(Nc3ccc(N4CCN(CC(=O)NCCOCCOCCC(=O)Nc5ccccc5C(=O)Nc5ccc(C#N)cn5)CC4)cn3)nc2n(C2CCCC2)c1=O` [CPD-083, 2-(3-(2-(2-(2-(4-(6-((6-Acetyl-8-cyclopentyl-5-methyl-7-oxo-7,8-dihydropyrido[2,3-d]pyrimidin-2-yl)amino)pyridin-3-yl)piperazin-1-yl)acetamido)ethoxy)ethoxy)propanamido)-N-(5-cyanopyridin-2-yl)benzamide]: the “CyclinD1 Degradation (200 nM)” value in experiment [1] is on record as “A (protein percentage degradation >=80%)”. Also, the inhibition at 0.2 µM in experiment [2] (Calu-1 cells, 200 nM, 16 hours) was 50 to 80%.
With `CC(=O)c1c(C)c2cnc(Nc3ccc(N4CCN(CC(=O)NCCOCCOCCC(=O)Nc5ccccc5C(=O)Nc5ccc(C(F)(F)F)cn5)CC4)cn3)nc2n(C2CCCC2)c1=O` [CPD-084, 2-(3-(2-(2-(2-(4-(6-((6-Acetyl-8-cyclopentyl-5-methyl-7-oxo-7,8-dihydropyrido[2,3-d]pyrimidin-2-yl)amino)pyridin-3-yl)piperazin-1-yl)acetamido)ethoxy)ethoxy)propanamido)-N-(5-(trifluoromethyl)pyridin-2-yl)benzamide], the “CyclinD1 Degradation (200 nM)” value in experiment [1] is on record as “A (protein percentage degradation >=80%)”. The inhibition at 0.2 µM in experiment [2] (Calu-1 cells, 200 nM, 16 hours) lay in the range of 50 to 80%.
As to `COc1ccc(NC(=O)c2ccccc2NC(=O)CCOCCOCCNC(=O)CN2CCN(c3ccc(Nc4ncc5c(C)c(C(C)=O)c(=O)n(C6CCCC6)c5n4)nc3)CC2)nn1` [CPD-085, 2-(3-(2-(2-(2-(4-(6-((6-Acetyl-8-cyclopentyl-5-methyl-7-oxo-7,8-dihydropyrido[2,3-d]pyrimidin-2-yl)amino)pyridin-3-yl)piperazin-1-yl)acetamido)ethoxy)ethoxy)propanamido)-N-(6-methoxypyridazin-3-yl)benzamide], the “CyclinD1 Degradation (200 nM)” value in experiment [1] was “A (protein percentage degradation >=80%)”. For the same molecule, the inhibition at 0.2 µM in experiment [2] (Calu-1 cells, 200 nM, 16 hours) was over 80%.
Consider `CC(=O)c1c(C)c2cnc(Nc3ccc(N4CCN(CCNCCOCCOCCNc5cccc(C(=O)Nc6nc(C)c(C)s6)c5C)CC4)cn3)nc2n(C2CCCC2)c1=O` [CPD-086, 3-((2-(2-(2-((2-(4-(6-((6-Acetyl-8-cyclopentyl-5-methyl-7-oxo-7,8-dihydropyrido[2,3-d]pyrimidin-2-yl)amino)pyridin-3-yl)piperazin-1-yl)ethyl)amino)ethoxy)ethoxy)ethyl)amino)-N-(4,5-dimethylthiazol-2-yl)-2-methylbenzamide], for which the “CyclinD1 Degradation (200 nM)” value in experiment [1] is on record as “D (protein percentage degradation <30%)”. For the same molecule, the inhibition at 0.2 µM in experiment [2] (Calu-1, 16 h) was under 30%.
With `CC(=O)c1c(C)c2cnc(Nc3ccc(N4CCN(CC(=O)NCCCNc5ccc(C)c(C(=O)Nc6nc(C)c(C)s6)c5)CC4)cn3)nc2n(C2CCCC2)c1=O` [CPD-087, 5-((3-(2-(4-(6-((6-Acetyl-8-cyclopentyl-5-methyl-7-oxo-7,8-dihydropyrido[2,3-d]pyrimidin-2-yl)amino)pyridin-3-yl)piperazin-1-yl)acetamido)propyl)amino)-N-(4,5-dimethylthiazol-2-yl)-2-methylbenzamide], the “CyclinD1 Degradation (200 nM)” value in experiment [1] was “D (protein percentage degradation <30%)”. Further, the inhibition at 0.2 µM in experiment [2] (Calu-1 cells, 200 nM, 16 hours) is under 30%.
The like results for `CC(=O)c1c(C)c2cnc(Nc3ccc(N4CCN(CC(=O)NCCCCNc5ccc(C)c(C(=O)Nc6nc(C)c(C)s6)c5)CC4)cn3)nc2n(C2CCCC2)c1=O` [CPD-088, 5-((4-(2-(4-(6-((6-Acetyl-8-cyclopentyl-5-methyl-7-oxo-7,8-dihydropyrido[2,3-d]pyrimidin-2-yl)amino)pyridin-3-yl)piperazin-1-yl)acetamido)butyl)amino)-N-(4,5-dimethylthiazol-2-yl)-2-methylbenzamide] were, in that order, “D (protein percentage degradation <30%)” and under 30%.
As for `CC(=O)c1c(C)c2cnc(Nc3ccc(N4CCN(CC(=O)NCCOCCOCCNc5ccc(C)c(C(=O)Nc6nc(C)c(C)s6)c5)CC4)cn3)nc2n(C2CCCC2)c1=O` [CPD-089, 5-((2-(2-(2-(2-(4-(6-((6-Acetyl-8-cyclopentyl-5-methyl-7-oxo-7,8-dihydropyrido[2,3-d]pyrimidin-2-yl)amino)pyridin-3-yl)piperazin-1-yl)acetamido)ethoxy)ethoxy)ethyl)amino)-N-(4,5-dimethylthiazol-2-yl)-2-methylbenzamide], the “CyclinD1 Degradation (200 nM)” value in experiment [1] is “B (protein percentage degradation <80%, and >=50%)”. Besides, the inhibition at 0.2 µM in experiment [2] (Calu-1 cells, 200 nM, 16 hours) lay in the range of 50 to 80%.
On to `CC(=O)c1c(C)c2cnc(Nc3ccc(N4CCN(CC(=O)NCCCCCCCCNc5cccc(C(=O)Nc6nc(C)c(C)s6)c5C)CC4)cn3)nc2n(C2CCCC2)c1=O` [CPD-090, 3-((8-(2-(4-(6-((6-Acetyl-8-cyclopentyl-5-methyl-7-oxo-7,8-dihydropyrido[2,3-d]pyrimidin-2-yl)amino)pyridin-3-yl)piperazin-1-yl)acetamido)octyl)amino)-N-(4,5-dimethylthiazol-2-yl)-2-methylbenzamide], for which, in experiment [1], the “CyclinD1 Degradation (200 nM)” value is given as “A (protein percentage degradation >=80%)”. Moreover, the inhibition at 0.2 µM in experiment [2] (Calu-1 cells, 200 nM, 16 hours) is 50 to 80%.
Take `CC(=O)c1c(C)c2cnc(Nc3ccc(N4CCN(C(=O)CCNc5ccc(C)c(C(=O)Nc6nc(C)c(C)s6)c5)CC4)cn3)nc2n(C2CCCC2)c1=O` [CPD-091, 5-((3-(4-(6-((6-Acetyl-8-cyclopentyl-5-methyl-7-oxo-7,8-dihydropyrido[2,3-d]pyrimidin-2-yl)amino)pyridin-3-yl)piperazin-1-yl)-3-oxopropyl)amino)-N-(4,5-dimethylthiazol-2-yl)-2-methylbenzamide]: in experiment [1], the “CyclinD1 Degradation (200 nM)” value is given as “D (protein percentage degradation <30%)”. In addition, the inhibition at 0.2 µM in experiment [2] (Calu-1, 16 h) is under 30%.
In the case of `CC(=O)c1c(C)c2cnc(Nc3ccc(N4CCN(CC(=O)NCCNc5cccc(C(=O)Nc6nc(C)c(C)s6)c5C)CC4)cn3)nc2n(C2CCCC2)c1=O` [CPD-092, 3-((2-(2-(4-(6-((6-Acetyl-8-cyclopentyl-5-methyl-7-oxo-7,8-dihydropyrido[2,3-d]pyrimidin-2-yl)amino)pyridin-3-yl)piperazin-1-yl)acetamido)ethyl)amino)-N-(4,5-dimethylthiazol-2-yl)-2-methylbenzamide], in experiment [1], the “CyclinD1 Degradation (200 nM)” value was “D (protein percentage degradation <30%)”. The inhibition at 0.2 µM in experiment [2] (Calu-1 cells, 200 nM, 16 hours) was under 30%.
The like results for `CC(=O)c1c(C)c2cnc(Nc3ccc(N4CCN(CC(=O)NCCNc5ccc(C)c(C(=O)Nc6nc(C)c(C)s6)c5)CC4)cn3)nc2n(C2CCCC2)c1=O` [CPD-093, 5-((2-(2-(4-(6-((6-Acetyl-8-cyclopentyl-5-methyl-7-oxo-7,8-dihydropyrido[2,3-d]pyrimidin-2-yl)amino)pyridin-3-yl)piperazin-1-yl)acetamido)ethyl)amino)-N-(4,5-dimethylthiazol-2-yl)-2-methylbenzamide] were, in that order, “D (protein percentage degradation <30%)” and under 30%.
In the case of `CC(=O)c1c(C)c2cnc(Nc3ccc(N4CCN(CC(=O)NCCCCCCNc5ccc(C)c(C(=O)Nc6nc(C)c(C)s6)c5)CC4)cn3)nc2n(C2CCCC2)c1=O` [CPD-094, 5-((6-(2-(4-(6-((6-Acetyl-8-cyclopentyl-5-methyl-7-oxo-7,8-dihydropyrido[2,3-d]pyrimidin-2-yl)amino)pyridin-3-yl)piperazin-1-yl)acetamido)hexyl)amino)-N-(4,5-dimethylthiazol-2-yl)-2-methylbenzamide], the “CyclinD1 Degradation (200 nM)” value in experiment [1] is “D (protein percentage degradation <30%)”. Moreover, in experiment [2] (Calu-1 cells, 200 nM, 16 hours), the inhibition at 0.2 µM is under 30%.
Regarding `CC(=O)c1c(C)c2cnc(Nc3ccc(N4CCN(CC(=O)NCCCCCCCCNc5ccc(C)c(C(=O)Nc6nc(C)c(C)s6)c5)CC4)cn3)nc2n(C2CCCC2)c1=O` [CPD-095, 5-((8-(2-(4-(6-((6-Acetyl-8-cyclopentyl-5-methyl-7-oxo-7,8-dihydropyrido[2,3-d]pyrimidin-2-yl)amino)pyridin-3-yl)piperazin-1-yl)acetamido)octyl)amino)-N-(4,5-dimethylthiazol-2-yl)-2-methylbenzamide], the “CyclinD1 Degradation (200 nM)” value in experiment [1] was “D (protein percentage degradation <30%)”. The inhibition at 0.2 µM in experiment [2] (Calu-1 cells, 200 nM, 16 hours) was under 30%.
In the case of `CC(=O)c1c(C)c2cnc(Nc3ccc(N4CCN(CC(=O)NCCOCCNc5ccc(C)c(C(=O)Nc6nc(C)c(C)s6)c5)CC4)cn3)nc2n(C2CCCC2)c1=O` [CPD-096, 5-((2-(2-(2-(4-(6-((6-Acetyl-8-cyclopentyl-5-methyl-7-oxo-7,8-dihydropyrido[2,3-d]pyrimidin-2-yl)amino)pyridin-3-yl)piperazin-1-yl)acetamido)ethoxy)ethyl)amino)-N-(4,5-dimethylthiazol-2-yl)-2-methylbenzamide], the “CyclinD1 Degradation (200 nM)” value in experiment [1] is reported as “D (protein percentage degradation <30%)”. Also, the inhibition at 0.2 µM in experiment [2] (Calu-1 cells, 200 nM, 16 hours) was under 30%.
Regarding `CC(=O)c1c(C)c2cnc(Nc3ccc(N4CCN(CC(=O)NCCOCCOCCOCCOCCOCCNc5ccc(C)c(C(=O)Nc6nc(C)c(C)s6)c5)CC4)cn3)nc2n(C2CCCC2)c1=O` [CPD-097, 5-((1-(4-(6-((6-Acetyl-8-cyclopentyl-5-methyl-7-oxo-7,8-dihydropyrido[2,3-d]pyrimidin-2-yl)amino)pyridin-3-yl)piperazin-1-yl)-2-oxo-6,9,12,15,18-pentaoxa-3-azaicosan-20-yl)amino)-N-(4,5-dimethylthiazol-2-yl)-2-methylbenzamide], in experiment [1], the “CyclinD1 Degradation (200 nM)” value is recorded as “A (protein percentage degradation >=80%)”. Further, the inhibition at 0.2 µM in experiment [2] (Calu-1 cells, 200 nM, 16 hours) is 50 to 80%.
